Measurements taken from patent US11866416B2, “Streptococcus mutans glucosyl transferase inhibitors for dental caries therapy” (UAB Research Foundation, priority 2018, dated 2024).
In brackets after ≈: the same amount, converted by molar mass. Like-named read-outs stand apart in the source and are kept apart here. Marks after values point to notes of the source that are not given here.

Columns and labels:
S. mutans = assay: microbe, parasite or virus in culture; format: cell-based, Streptococcus mutans; details: for Selectivity: growth versus biofilm
Description: Cell viability of S. mutans, S. gordonii, S. sanguinis, Aggregatibacter actinomycetemcomitans and Actinomyces. […] The number of colony-forming units (CFU) per milliliter of each sample treated with selected compounds at different concentrations was enumerated after incubation for 24 h at 37° C. and compared to the values obtained from the DMSO control group. Overnight broth cultures were transferred by 1:50 dilutions into fresh THB medium and were allowed to grow until mid-exponential phase (OD470 nm 0.6) before transfer to 96-well plates containing desired concentration of the compound. After 16 h incubation, bacterial growth was measured at OD470, and normalized to the DMSO control (100%).
Cell viability of S. mutans and commensal S. gordonii and S. sanguinis. Effects of lead small molecules on cell viability were examined. The number of colony-forming units (CFU) per milliliter for each compound at different concentrations was determined after incubation for 24 h at 37° C. and compared to the values obtained from the DMSO control group.
Cell viability of S. mutans and commensal S. gordonii and S. sanguinis. […] DMSO served as a control group and provided a relative comparison for the number of colony-forming units (CFU) per milliliter for each compound at different concentrations was determined after incubation for 24 h at 37° C. The final concentration of DMSO used in the assays was 1%.

S. mutans biofilm = S. mutans biofilm formation and inhibition assay (96-well plates, crystal violet); format: cell-based, Streptococcus mutans
Description: Biofilm assays using 96-well flat-bottom polystyrene microtiter plates were performed to evaluate S. mutans biofilm formation at various conditions as described (Liu et al. (2011) Antimicrobial Agents and Chemotherapy 55, 2679; Zhang et al. (2015) International Journal of Antimicrobial Agents 46, 174), the disclosures of which are incorporated herein by reference in their entirety). Each assay was replicated three times. Compounds that inhibited biofilm formation at minimum concentration (MBIC) were determined by serial dilutions.
S. mutans biofilm formation and inhibition assays. […] Each assay was replicated three times. Minimum biofilm inhibitory concentration (MBIC) of compounds was determined by serial dilutions.
S. mutans biofilm formation and inhibition assays. Biofilm assays using 96-well flat-bottom polystyrene microtiter plates were performed to evaluate S. mutans biofilm formation at various conditions as described. Each assay was replicated […]. Compounds that inhibited 50% biofilm formation were determined by serial dilutions.
S. mutans biofilm formation and inhibition assays. A well-established protocol to study S. mutans biofilm formation in 96-well flat-bottom polystyrene microtiter plates was used, in triplicate (Mattos-Graner, R. O.; Napimoga, M. H.; Fukushima, K.; Duncan, M. J.; Smith, D. J., Comparative analysis of Gtf isozyme production and diversity in isolates of Streptococcus mutans with different biofilm growth phenotypes. Journal of clinical microbiology 2004, 42 (10), 4586-4592). The stock solutions were made up in 100% DMSO, and final concentration of DMSO used in the assays was 1%. Minimum biofilm inhibitory concentration (MBIC) of compounds was determined by serial dilutions.

[1] = Streptococcus mutans, Table 2, >300 = no inhibition up to 300 μM, read-out: Growth Inhibition MIC50
[2] = Streptococcus mutans, Table 1, >500 = no inhibition up to 500 μM, read-out: Biofilm Inhibition IC50
[3] = Streptococcus mutans, Table 2, read-out: Biofilm Inhibition IC50
[4] = Streptococcus mutans, Table 3, >300 = no inhibition up to 300 μM, NI = no inhibition up to 400 μM, read-out: Growth Inhibition MIC50
[5] = Streptococcus mutans, Table 3, read-out: Biofilm Inhibition IC50
[6] = Streptococcus mutans, Table 4, stilbenes, average of at least 5 measurements, NI = no inhibition, read-out: Growth MIC50
[7] = Streptococcus mutans, Table 4, stilbenes, NI = no inhibition, read-out: Biofilm IC50
[8] = Streptococcus mutans, Table 8, stilbenes, NI = no inhibition, read-out: Biofilm IC50

SMILES	MIC50 (S. mutans; [1])	IC50 (S. mutans biofilm; [2])	IC50 (S. mutans biofilm; [3])	further results
COc1cc(-c2[o+]c3cc(O)cc(O)c3cc2O)cc(O)c1O [PAC]	–	–	–	MIC50 (S. mutans; [4]): 274 ± 45.8 µM; IC50 (S. mutans biofilm; [5]): 61.2 ± 2.3 µM
NC(=O)c1ccc(NC(=O)c2ccc3ccccc3n2)cc1 [BC]	> 300 µM	54.4 µM	54.4 µM	–
NC(=O)c1ccccc1OC(=O)c1ccc2ccccc2c1 [AX]	> 300 µM	98.3 µM	98.3 µM	–
O=C1/C(=C/c2ccc(O)c(O)c2)Oc2ccccc21 [SN-II-118]	–	–	–	MIC50 (S. mutans; [4]): 263 ± 14 µM (≈ 66.8 µg/mL); IC50 (S. mutans biofilm; [5]): 280 ± 35 µM
C[n+]1ccc(/C=C/c2ccc(O)c(O)c2)c2ccccc21 [Entry 11]	–	–	–	MIC50 (S. mutans; [6]): > 400 µM; Selectivity (S. mutans; Table 4, stilbenes): 4.0; MIC50 (S. mutans; Table 8, stilbenes, average of at least 5 measurements, NI = no inhibition, read-out: Growth MIC50): >400 µM; Selectivity (S. mutans; Table 8, stilbenes): 4.0; IC50 (S. mutans biofilm; [7]): 104 ± 6 µM; IC50 (S. mutans biofilm; [8]): 104 ± 6 µM
NC(=O)c1cccc(NC(=O)c2ccc(-c3ccccc3)cc2)c1 [AR]	> 300 µM	79.9 µM	79.9 µM	–
O=C1/C(=C/c2ccccc2)Oc2ccccc21 [LC-I-206]	–	–	–	MIC50 (S. mutans; [4]): > 300 µM; IC50 (S. mutans biofilm; [5]): 320 ± 21 µM
O=C1/C(=C/c2cc(O)c(O)cc2O)Oc2ccccc21 [SN-II-110]	–	–	–	MIC50 (S. mutans; [4]): 157 ± 13 µM (≈ 42.3 µg/mL); IC50 (S. mutans biofilm; [5]): 10.2 ± 2 µM
NC(=O)c1cccc(NC(=O)c2ccc3ccccc3n2)c1 [AV]	> 300 µM	111 µM	111 µM	–
Oc1cc(O)c2cc(O)c(-c3cc(O)c(O)c(O)c3)[o+]c2c1 [PBF]	–	–	–	MIC50 (S. mutans; [4]): 262 ± 21 µM; IC50 (S. mutans biofilm; [5]): 135 ± 5.6 µM
COC(=O)c1ccc(NC(=O)c2cc3cc([N+](=O)[O-])ccc3[nH]2)cc1 [BZ]	> 300 µM	196 µM	–	–
O=c1c(O)c(-c2ccc(O)cc2O)oc2ccccc12 [SN-II-79]	–	–	–	MIC50 (S. mutans; [4]): 30 ± 1 µM (≈ 8.11 µg/mL); IC50 (S. mutans biofilm; [5]): 65.9 ± 1 µM
NC(=O)c1ccccc1OC(=O)c1ccc2ccccc2n1 [Compound 298G7]	> 300 µM	–	105 µM	–
NC(=O)c1ccccc1NC(=O)c1cnc2ccc(Br)cc2c1 [Compound 3J]	> 300 µM	106 µM	106 µM	–
COc1cc(/C=C/c2ccc(OC)c(O)c2)cc(OC)c1 [Entry 9]	–	–	–	MIC50 (S. mutans; [6]): 137 ± 6 µM (≈ 39.2 µg/mL); Selectivity (S. mutans; Table 4, stilbenes): 1.1; Growth MIC50 (S. mutans; Table 8, stilbenes, average of at least 5 measurements, NI = no inhibition): 137 ± 6 µM; Selectivity (S. mutans; Table 8, stilbenes): 1.1; IC50 (S. mutans biofilm; [7]): 122 ± 11 µM; IC50 (S. mutans biofilm; [8]): 122 ± 11 µM
CN(C)c1ncc(/C=C/C(=O)Nc2ccccc2C(N)=O)cn1 [SN-I-271S]	> 300 µM	–	12.8 µM	–

SMILES	MIC50 (S. mutans; [1])	IC50 (S. mutans biofilm; [2])	IC50 (S. mutans biofilm; [3])	further results
COC(=O)c1cccc(NC(=O)c2cc3cc(N/C(=N\C(=O)OC(C)(C)C)NC(=O)OC(C)(C)C)ccc3o2)c1 [SN-II-106]	29 µM (≈ 16 µg/mL)	–	14 µM	–
NC(=O)c1ccccc1NC(=O)c1c[nH]c2ccccc12 [Compound 3F]	> 300 µM	146 µM	146 µM	–
COc1ccc(/C=C2\Oc3ccccc3C2=O)cc1OC [LC-I-197]	–	–	–	MIC50 (S. mutans; [4]): 37.1 ± 6 µM (≈ 10.5 µg/mL); IC50 (S. mutans biofilm; [5]): 8.4 ± 1 µM
COc1ccc(/C=C2\Oc3ccccc3C2=O)c(OC)c1 [LC-I-203]	–	–	–	MIC50 (S. mutans; [4]): > 300 µM; IC50 (S. mutans biofilm; [5]): 40.6 ± 3 µM
NC(=O)c1ccccc1NC(=O)c1cc2cc(N)ccc2s1 [SN-II-81F]	> 300 µM	–	–	IC50 (S. mutans biofilm; Table 2, read-out: Biofilm Inhibition IC50): 56.4 µM
COC(=O)c1ccc(NC(=O)c2ccc3ccccc3n2)cc1 [Compound 298G6]	> 300 µM	–	106 µM	–
NC(=O)c1ccccc1OC(=O)c1ccc(-c2ccccc2)cc1 [AQ]	> 300 µM	55.6 µM	55.6 µM	–
COc1cc(OC)c(-c2oc3ccccc3c(=O)c2O)cc1OC [AP-I-240]	–	–	–	MIC50 (S. mutans; [4]): 15.3 ± 3 µM (≈ 5.02 µg/mL); IC50 (S. mutans biofilm; [5]): 10.1 ± 1 µM
O=C(/C=C/c1ccc(O)c(O)c1)c1ccccc1O [RZ-1-90]	–	–	–	MIC50 (S. mutans; [4]): > 300 µM; IC50 (S. mutans biofilm; [5]): 356 ± 14 µM
O=C(/C=C/c1ccc(O)cc1O)c1ccc(O)cc1 [SN-II-49C]	–	–	–	MIC50 (S. mutans; [4]): 782 ± 96 µM (≈ 200 µg/mL); IC50 (S. mutans biofilm; [5]): 77 ± 8 µM
COC(=O)c1cccc(NC(=O)c2cc3cc(NC(=N)N)ccc3o2)c1 [SN-II-107]	45.9 µM (≈ 16.2 µg/mL)	–	16.6 µM	–
COC(=O)c1cccc(NC(=O)c2ccc3ccccc3n2)c1 [Compound 298G5]	> 300 µM	–	92.3 µM	–
Cl.NC(=O)c1ccccc1NC(=O)c1cc2cc(N)ccc2s1 [SN-II-81Cl]	–	–	9.6 µM	Growth Inhibition MIC50 (S. mutans; Table 2, >300 = no inhibition up to 300 μM): >300^b μM
NC(=O)c1ccc(NC(=O)c2cccc3ccccc23)cc1 [BR]	> 300 µM	167 µM	167 µM	–
COc1ccc(/C=C/C(=O)c2ccc(OC)c(OC)c2O)c(OC)c1 [SN-II-24-B6]	–	–	–	MIC50 (S. mutans; [4]): 231 ± 12 µM (≈ 79.4 µg/mL); IC50 (S. mutans biofilm; [5]): 101 ± 3 µM
COc1cc(O)ccc1/C=C1\Oc2ccccc2C1=O [SN-II-115]	–	–	–	MIC50 (S. mutans; [4]): 153 ± 21 µM (≈ 41 µg/mL); IC50 (S. mutans biofilm; [5]): 133 ± 24 µM

Continued, in another order:

MIC50 (S. mutans; [1])	IC50 (S. mutans biofilm; [2])	IC50 (S. mutans biofilm; [3])	SMILES	further results
> 300 µM	106 µM	106 µM	NCc1ccccc1NC(=O)c1cc2cc([N+](=O)[O-])ccc2s1 [AM]	–
> 300 µM	160 µM	160 µM	NCc1ccccc1NC(=O)c1ccc2ccccc2c1 [AH]	–
> 300 µM	45.6 µM	45.6 µM	NC(=O)c1ccccc1NC(=O)c1cc2ccccc2s1 [Compound 3B]	–
> 300 µM	74.9 µM	74.9 µM	COC(=O)c1ccccc1NC(=O)c1cc2ccccc2s1 [BE]	–
> 300 µM	68.8 µM	68.8 µM	COc1ccc2[nH]c(C(=O)Nc3ccccc3C(N)=O)cc2c1 [Compound 3G]	–
> 300 µM	–	26.8 µM	CC(C)(C)OC(=O)NCc1ccccc1NC(=O)c1cc2cc([N+](=O)[O-])ccc2[nH]1 [Compound 298C9]	–
> 300 µM	2.7 µM	2.7 µM	COC(=O)c1cccc(NC(=O)c2cc3cc([N+](=O)[O-])ccc3o2)c1 [AE]	–
> 300 µM	38.8 µM	38.8 µM	NC(=O)c1cccc(NC(=O)c2cc3cc([N+](=O)[O-])ccc3o2)c1 [Compound 3Z]	–
> 300 µM	144 µM	144 µM	COC(=O)c1ccc(NC(=O)c2cc3cc([N+](=O)[O-])ccc3o2)cc1 [AC]	–
> 300 µM	43.4 µM	43.4 µM	CC(C)(C)OC(=O)NCc1ccccc1NC(=O)c1cc2ccccc2s1 [AI]	–
> 300 µM	67.5 µM	67.5 µM	CC(C)(C)OC(=O)NCc1ccccc1NC(=O)c1ccc2ccccc2n1 [AP]	–
> 300 µM	209 µM	209 µM	NCc1cccc(NC(=O)c2cc3ccccc3s2)c1 [BX]	–
> 300 µM	–	138 µM	NC(=O)c1cccc(NC(=O)c2cc3cc([N+](=O)[O-])ccc3[nH]2)c1 [Compound 298b2]	–
> 300 µM	103 µM	103 µM	NC(=O)c1ccccc1NC(=O)c1cc2cc([N+](=O)[O-])ccc2o1 [Compound 3K]	–
> 300 µM	56.8 µM	56.8 µM	CC(C)(C)OC(=O)NCc1ccccc1NC(=O)c1ccc2ccccc2c1 [AO]	–
> 300 µM	–	15.6 µM	O=C(O)c1ccc(NC(=O)c2cc3cc([N+](=O)[O-])ccc3s2)cc1 [SN-I-272OH]	–
> 300 µM	51.5 µM	51.5 µM	CC(C)(C)OC(=O)NCc1ccccc1NC(=O)c1cc2cc([N+](=O)[O-])ccc2s1 [AJ]	–
> 300 µM	136 µM	136 µM	NCc1ccccc1NC(=O)c1cnc2ccccc2c1 [AL]	–
> 300 µM	–	121 µM	COC(=O)c1cccc(NC(=O)c2cc3ccccc3s2)c1 [Compound 298D5]	–
> 300 µM	71.4 µM	71.4 µM	COC(=O)c1ccccc1NC(=O)c1cc2cc([N+](=O)[O-])ccc2o1 [BB]	–
> 300 µM	121 µM	121 µM	COC(=O)c1ccccc1NC(=O)c1ccc2ccccc2c1 [AZ]	–
